# Where two headings read alike, the source gives them in different places.
# Assays:
# Format in all cases: cell-based
# [1] = tested on: Salmonella enterica isolated from layer feed; assay: Preliminary in vitro feed assay, Salmonella count in contaminated feed over 21 days; settings: 15 kg/ton
# Procedure: (§1) Preparation of the treatment. Perpropionic acid, peracetic acid, mixture of peroctanoic acid and perdecanoic acid (PC8/PC10) and Sal CURB products were used without any further dilution or mixing. The peroxy mix was prepared by mixing peracetic and perpropionic acid in 1:1 weight ratio. Briefly, 1.0 g of peroxy mix was prepared by weighing 0.5 g of peracetic acid into 0.5 g of perpropionic acid. The mixture was mixed well prior to usage. Similar procedure was followed in the preparation of 3% sulphuric acid (where […] of water) and peroxy mix with ester (where 0.9 g of peroxy mix (prepared with peracetic and propionic acid) was mixed with 0.1 g of propylene glycol propionate esters). […] Briefly, 1 mL of 75% phosphoric acid was added to 10 mL of Pro-Oxine solution and mixed well. The mixture is covered and let to stand for 10 mins prior to usage.
# (§2) Preparation of stock feed inoculum. The researchers prepared contaminated feed from known methods, where Salmonella enterica isolated from layer feed was revived from the glycerol stock by plating a loopful of culture onto the TSAYE (i.e., tryptone soya agar supplemented with 0.6% yeast extract (CM0131B; Oxoid) prepared as per recommended) and incubate for 18-24 hours at 37° C. Following which, the colonies were collected aseptically with saline solution (i.e., 0.9% sodium chloride (V800372; Sigma-Aldrich) prepared in deionized water), yielding approximately 5 mL of biomass suspension. The biomass suspension was diluted accordingly to meet the contamination level required for the stock inoculum. No dilution was required for high contamination level of ca. 10^7 cfu/g whereas biomass suspension was diluted 1000 times to achieve lower contamination level of ca. 10^4 cfu/g in the stock inoculum. The stock feed inoculum was prepared by adding the biomass suspension (5 mL) into 100 g of sterile feed (made up with 7:3 ground corn and soybean, autoclaved at 121° C. for one hour and dried for 24 hours at 65° C.) with a syringe and needle, and homogenously mixed after. The stock feed inoculum was stored at 25° C. for a week. Salmonella count of the stock inoculum was determined using conventional plating method with XLD agar (i.e., Xylose lysine deoxycholate (CM0469B; Oxoid)) and BPW (i.e., buffered peptone water (CM0509B; Oxoid)) prior to usage. Briefly, three grams of stock feed inoculum was weighed into a 50 mL conical tube, diluted with 27 mL of BPW, homogenously mixed and left to stand for 30 minutes. The feed suspension was then serial diluted to the appropriate dilutions. An aliquot of 0.1 mL of the feed suspension was plated onto the agar at each dilution and incubated at 37° C. for 18-24 hours prior to enumeration. Plating was carried out in triplicates. Blank stock feed was prepared by adding 5 mL of saline into 100 g of sterile feed.
# (§3) Preparation of the feed inoculum. The stock feed inoculum was diluted approximately 100 times with sterile feed where three grams of stock inoculum was added into 307 g of sterile feed and kept at 37° C. for 24 hours. The Salmonella count of the feed was determined prior to treatment. Briefly, 90 mL of BPW was added into 10 g of feed sample in a sterile bag (10^−1 dilution). The mixture was homogenously mixed with a stomacher at medium speed for three minutes and left to stand for 30 minutes. The feed supernatant was serial diluted to appropriate dilutions for plating. The plates were incubated at 37° C. for 18-24 hours prior to counting. If low Salmonella count was expected, the sample size was increased to 1 mL by plating 300, 300 and 400 uL onto three plates in triplicates for […] detection limit (10 cfu/g). Blank feed was prepared by adding three grams of blank stock feed into 307 g of sterile feed. In addition, an extra contaminated feed was prepared as a control.
# (§4) Treatment of contaminated feed. […]
# [2] = tested on: Salmonella enterica isolated from layer feed; assay: In vitro feed assay, high Salmonella contamination level (~5 log cfu/g); settings: 10.0 kg/ton
# Procedure: as §1, §2, §3, §4
# [3] = tested on: Escherichia coli ATCC 25922; assay: Minimum inhibitory concentration (MIC), broth microdilution; settings: Escherichia coli
# Procedure: Materials and Methods. The assay was conducted to determine the minimum inhibitory concentration (MIC) of peroxy-acids against Escherichia coli ATCC 25922. E. coli was purchased from American Type Culture Collection (ATCC). The strain was stored at −80° C. in glycerol. Prior to usage, E. coli was revived by streaking a loopful of culture onto TSAYE (i.e., tryptone soya agar yeast extract (CM0131 and LP0021; Oxoid) prepared as per recommended by Oxoid) with overnight incubation at 37° C. An overnight culture of E. coli was diluted in TSBYE (i.e, tryptone soya broth yeast extract (CM0129; Oxoid) prepared as per recommended by Oxoid) to obtain a cell suspension of ca. 10^5 CFU/mL. Subsequently, 100 μL of the diluted culture was added to 100 μL of the test solutions at the needed concentrations into a microtiter plate (92096; TPP Techno Plastic Products AG). Peroxy-acids were tested at an active concentration of 25-1600 μg/mL. Subsequently, the inoculated plate was incubated at 37° C. up to 48 hours with the bacterial cell density recorded at optical density (OD) 600 nm at 24 hours interval using a microplate reader (Varioskan LUX; Thermo Fisher).
# Enterobacteriaceae = tested on: Enterobacteriaceae
# Procedure: Materials and Method. Naturally contaminated layer feed was collected, ground, and mixed well prior to weighing. The ground feed was weighed and separated into 15 different bags, each containing 300 g. The product/prototype was accurately weighed at the needed dosage and adjusted to a total volume of 5 mL prior to adding into the 300 g of feed with a syringe and needle. Product/prototype was added in batches (i.e., 2, 2, and 1 mL separately) and mixed after each addition. Five mL of sterile water was added into the feed and served as the control. The treated feed samples were homogenized after treatment and kept at 25° C. until the day of enumeration.
# TEC of the 15 samples were studied over a period of 22 days with enumeration interval at time points 0, 1 and 22 days. The effect of peroxy acid was neutralized at each time point prior to enumeration. At each time point, 20 mL of 0.1 M sodium thiosulphate was added into 10 g of each treated feed sample in a sterile bag. The mixture was mixed well and left to stand for 10 minutes. After 10 minutes, 70 mL of BPW was added to achieve 10^−1 dilution. The feed suspension was homogenously mixed and left to stand for 30 minutes. Subsequently, the feed suspension was serial diluted to appropriate dilutions for enumeration. 100 uL of the diluted samples were plated onto Violet Red Bile Glucose (VRBG; CM0485 from Oxoid) agar, prepared as per recommended by the supplier. An aliquot of 0.1 mL of the feed suspension was plated onto the agar at each dilution and incubated at 37° C. for 18-24 hours prior to enumeration. Plating was carried out in triplicates. If low TEC is expected, the sample size is increased to 1 mL by plating 300, 300 and 400 uL onto three plates in triplicates for lower detection limit (10 CFU/g). The diluted feed samples (at 10^−1 dilution factor) were kept at 37° C. for 18-24 hours for enrichment prior to streaking. A loopful of diluted feed suspension was streaked onto the VRBG agar and incubated at 37° C. for 18-24 hours to determine qualitatively the presence of Enterobacteriaceae for samples with undetectable TEC.
smiles,measurement,setting,value
"O=S(=O)(O)O [3% w/w sulphuric acid, sulphuric acid]",Salmonella killing effect,[1]; over the 21 days,No Salmonella killing effect
same,Salmonella count,[1]; post-treatment Day 1,5.80 log cfu/g
same,Salmonella count,[1]; post-treatment Day 6,5.02 log cfu/g
same,Salmonella count,[1]; post-treatment Day 21,4.82 log cfu/g
same,Salmonella count,[1]; pre-treatment Day 0,5.59 log cfu/g
"CC(=O)OO [Peracetic acid, peracetic acid]",Salmonella count,[1]; pre-treatment Day 0,5.63 log cfu/g
same,Salmonella count,[2]; post-treatment Day 1,2.01 log cfu/g
same,Salmonella count,[2]; post-treatment Day 2,BD (Salmonella count is below detection limit (1 log cfu/g))
same,Salmonella count,[2]; post-treatment Day 3,BD (Salmonella count is below detection limit (1 log cfu/g))
same,Salmonella count,[2]; post-treatment Day 6,2.11 log cfu/g
same,Salmonella count,[2]; post-treatment Day 14,BD (Salmonella count is below detection limit (1 log cfu/g))
same,Salmonella count,[2]; post-treatment Day 21,1.12 log cfu/g
same,Salmonella count,[2]; pre-treatment Day 0,5.98 log cfu/g
same,MIC,"[3]; ATCC25922, preliminary results, read-out: MIC",300 µg/mL
same,MIC,"[3]; ATCC25922, no increment in OD over 48 hours, 37° C., read-out: Minimum inhibitory concentration (μg/mL) against E. coli",300 µg/mL
same,TEC,"Enterobacteriaceae; 2.5 kg/ton, post treatment Day 1",<1.00 log CFU/g
same,TEC,"Enterobacteriaceae; 2.5 kg/ton, post treatment Day 22",3.32 log CFU/g
same,TEC,"Enterobacteriaceae; 2.5 kg/ton, pre-treatment Day 0",3.37 log CFU/g
same,TEC,"Enterobacteriaceae; 5.0 kg/ton, post treatment Day 1",2.39 log CFU/g
same,TEC,"Enterobacteriaceae; 5.0 kg/ton, post treatment Day 22",<1.00 log CFU/g
same,TEC,"Enterobacteriaceae; 5.0 kg/ton, pre-treatment Day 0",<2.00 log CFU/g
same,TEC,"Enterobacteriaceae; 10.0 kg/ton, post treatment Day 1",1.43 log CFU/g
same,TEC,"Enterobacteriaceae; 10.0 kg/ton, post treatment Day 22",<1.00 log CFU/g
same,TEC,"Enterobacteriaceae; 10.0 kg/ton, pre-treatment Day 0",2.52 log CFU/g

# Source: patent US20250008983A1, “COMPOSITIONS CONTAINING PEROXYACIDS TO CONTROL PATHOGEN GROWTH IN ANIMAL FEED AND RELATED METHODS” (KEMIN INDUSTRIES, INC., priority 2023, published 2025)
